According to ChEMBL document CHEMBL4507268 (2021):

Legend:
Details in all cases: Compound concentration 1.0 uM
[1] = molecular target: Calcium/calmodulin-dependent protein kinase type II subunit delta (Homo sapiens) (UniProt Q13557)
[2] = molecular target: Calcium/calmodulin-dependent protein kinase kinase 1 (Homo sapiens) (UniProt Q8N5S9)
[3] = molecular target: Casein kinase II subunit alpha' (Homo sapiens) (UniProt P19784)
[4] = molecular target: RAF proto-oncogene serine/threonine-protein kinase (Homo sapiens) (UniProt P04049)
RAF proto-oncogene serine/threonine-protein kinase (Homo sapiens), sequence (P04049 whole entry): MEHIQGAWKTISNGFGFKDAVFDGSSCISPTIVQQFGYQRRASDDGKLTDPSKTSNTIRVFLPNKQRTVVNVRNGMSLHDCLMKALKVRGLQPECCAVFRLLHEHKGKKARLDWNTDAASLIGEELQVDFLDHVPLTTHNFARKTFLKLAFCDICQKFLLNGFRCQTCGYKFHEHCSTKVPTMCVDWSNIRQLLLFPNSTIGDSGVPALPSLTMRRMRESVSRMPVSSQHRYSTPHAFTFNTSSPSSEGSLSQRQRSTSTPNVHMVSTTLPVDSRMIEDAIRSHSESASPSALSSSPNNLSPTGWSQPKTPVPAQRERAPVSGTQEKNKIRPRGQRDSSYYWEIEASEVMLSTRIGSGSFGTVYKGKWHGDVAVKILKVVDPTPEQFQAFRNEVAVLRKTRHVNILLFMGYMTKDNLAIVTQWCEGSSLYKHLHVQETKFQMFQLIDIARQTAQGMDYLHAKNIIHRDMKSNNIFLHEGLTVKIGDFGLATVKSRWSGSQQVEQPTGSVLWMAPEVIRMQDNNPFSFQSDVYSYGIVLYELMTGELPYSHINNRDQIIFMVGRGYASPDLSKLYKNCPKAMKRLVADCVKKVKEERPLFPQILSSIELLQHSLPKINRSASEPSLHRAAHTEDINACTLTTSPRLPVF

[5] = molecular target: Eukaryotic elongation factor 2 kinase (Homo sapiens) (UniProt O00418)
Eukaryotic elongation factor 2 kinase (Homo sapiens), sequence (O00418 whole entry): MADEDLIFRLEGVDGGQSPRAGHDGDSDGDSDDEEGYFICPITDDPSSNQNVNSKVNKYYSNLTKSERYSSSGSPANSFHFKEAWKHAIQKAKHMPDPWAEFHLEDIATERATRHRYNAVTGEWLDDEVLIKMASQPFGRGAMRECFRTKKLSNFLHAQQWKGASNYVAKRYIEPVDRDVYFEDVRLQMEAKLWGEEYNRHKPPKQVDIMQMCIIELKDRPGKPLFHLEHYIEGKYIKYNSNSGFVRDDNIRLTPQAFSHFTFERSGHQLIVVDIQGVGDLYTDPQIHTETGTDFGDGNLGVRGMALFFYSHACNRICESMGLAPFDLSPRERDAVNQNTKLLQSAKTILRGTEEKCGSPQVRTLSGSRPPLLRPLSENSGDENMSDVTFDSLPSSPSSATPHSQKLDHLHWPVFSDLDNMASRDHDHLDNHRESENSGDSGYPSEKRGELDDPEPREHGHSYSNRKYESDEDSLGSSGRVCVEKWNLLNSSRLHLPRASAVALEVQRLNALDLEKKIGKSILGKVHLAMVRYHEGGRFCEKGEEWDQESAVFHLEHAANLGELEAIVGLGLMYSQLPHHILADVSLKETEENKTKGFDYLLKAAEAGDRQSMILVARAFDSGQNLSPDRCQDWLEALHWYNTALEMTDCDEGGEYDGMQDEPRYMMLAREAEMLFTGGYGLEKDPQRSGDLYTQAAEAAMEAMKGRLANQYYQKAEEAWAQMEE

[6] = molecular target: Tyrosine-protein kinase Fyn (Homo sapiens) (UniProt P06241)
[7] = molecular target: LIM domain kinase 1 (Homo sapiens) (UniProt P53667)
LIM domain kinase 1 (Homo sapiens), sequence (P53667 whole entry, looked up, the tested form may be a part): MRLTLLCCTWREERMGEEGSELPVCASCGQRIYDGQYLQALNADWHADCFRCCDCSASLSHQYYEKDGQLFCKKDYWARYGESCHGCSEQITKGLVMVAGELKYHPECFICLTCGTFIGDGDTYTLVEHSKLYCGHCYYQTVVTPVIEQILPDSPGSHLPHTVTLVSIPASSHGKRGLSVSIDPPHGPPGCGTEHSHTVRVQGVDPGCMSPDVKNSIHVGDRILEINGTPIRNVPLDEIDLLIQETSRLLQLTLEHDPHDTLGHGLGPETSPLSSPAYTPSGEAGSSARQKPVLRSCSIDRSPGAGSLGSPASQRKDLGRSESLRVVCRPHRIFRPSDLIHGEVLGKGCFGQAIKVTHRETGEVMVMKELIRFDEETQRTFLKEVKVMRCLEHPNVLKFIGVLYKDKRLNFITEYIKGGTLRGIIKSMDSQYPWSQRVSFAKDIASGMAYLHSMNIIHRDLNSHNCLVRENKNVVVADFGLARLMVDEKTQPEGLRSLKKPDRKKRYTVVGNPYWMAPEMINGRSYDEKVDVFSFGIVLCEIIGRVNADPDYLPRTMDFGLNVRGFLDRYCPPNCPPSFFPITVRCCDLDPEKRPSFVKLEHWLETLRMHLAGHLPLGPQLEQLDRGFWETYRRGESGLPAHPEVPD

[8] = molecular target: T1, Mitogen-activated protein kinase kinase kinase 3 (Homo sapiens) (UniProt Q99759)
T1 sequence (whole entry): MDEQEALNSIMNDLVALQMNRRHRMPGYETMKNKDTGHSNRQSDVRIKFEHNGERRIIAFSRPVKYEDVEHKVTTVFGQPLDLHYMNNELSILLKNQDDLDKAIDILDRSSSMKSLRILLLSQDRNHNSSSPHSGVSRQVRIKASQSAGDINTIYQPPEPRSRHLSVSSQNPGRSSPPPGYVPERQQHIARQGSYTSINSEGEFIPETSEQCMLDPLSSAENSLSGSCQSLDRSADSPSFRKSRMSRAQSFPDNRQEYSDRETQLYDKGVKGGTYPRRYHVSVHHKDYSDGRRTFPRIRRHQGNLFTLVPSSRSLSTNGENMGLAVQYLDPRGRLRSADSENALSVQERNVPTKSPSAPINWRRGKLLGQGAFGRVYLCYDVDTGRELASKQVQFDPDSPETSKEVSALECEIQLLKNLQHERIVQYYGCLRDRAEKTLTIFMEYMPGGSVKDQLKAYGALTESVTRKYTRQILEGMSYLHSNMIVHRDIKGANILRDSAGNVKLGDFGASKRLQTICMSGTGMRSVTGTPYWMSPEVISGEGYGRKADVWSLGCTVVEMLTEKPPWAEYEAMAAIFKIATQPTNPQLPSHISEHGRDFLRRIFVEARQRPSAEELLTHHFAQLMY

[9] = molecular target: MAP kinase-interacting serine/threonine-protein kinase 2 (Homo sapiens) (UniProt Q9HBH9)
[10] = molecular target: cAMP-dependent protein kinase catalytic subunit alpha (Homo sapiens) (UniProt P17612)
[11] = molecular target: Protein kinase C zeta type (Homo sapiens) (UniProt Q05513)
[12] = molecular target: Serine/threonine-protein kinase PLK3 (Homo sapiens) (UniProt Q9H4B4)
Serine/threonine-protein kinase PLK3 (Homo sapiens), sequence (Q9H4B4 whole entry, looked up): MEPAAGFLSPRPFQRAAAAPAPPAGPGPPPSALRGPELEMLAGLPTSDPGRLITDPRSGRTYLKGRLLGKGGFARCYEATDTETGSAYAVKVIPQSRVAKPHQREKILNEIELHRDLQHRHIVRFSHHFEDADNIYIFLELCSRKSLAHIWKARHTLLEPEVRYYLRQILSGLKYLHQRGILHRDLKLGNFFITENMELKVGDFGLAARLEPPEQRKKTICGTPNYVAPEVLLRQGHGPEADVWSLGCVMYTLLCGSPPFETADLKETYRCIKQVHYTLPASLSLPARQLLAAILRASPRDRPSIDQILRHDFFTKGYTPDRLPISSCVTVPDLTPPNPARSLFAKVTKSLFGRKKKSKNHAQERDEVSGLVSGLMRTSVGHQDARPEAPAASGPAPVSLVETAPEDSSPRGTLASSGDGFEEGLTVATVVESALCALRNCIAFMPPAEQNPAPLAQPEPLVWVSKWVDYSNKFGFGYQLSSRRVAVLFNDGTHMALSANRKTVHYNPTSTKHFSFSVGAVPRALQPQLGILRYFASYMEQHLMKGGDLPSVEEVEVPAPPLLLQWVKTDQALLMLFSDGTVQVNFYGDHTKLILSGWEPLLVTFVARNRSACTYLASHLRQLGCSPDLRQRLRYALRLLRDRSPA

[13] = molecular target: Proto-oncogene tyrosine-protein kinase receptor Ret (Homo sapiens) (UniProt P07949)
Proto-oncogene tyrosine-protein kinase receptor Ret (Homo sapiens), sequence (P07949 whole entry): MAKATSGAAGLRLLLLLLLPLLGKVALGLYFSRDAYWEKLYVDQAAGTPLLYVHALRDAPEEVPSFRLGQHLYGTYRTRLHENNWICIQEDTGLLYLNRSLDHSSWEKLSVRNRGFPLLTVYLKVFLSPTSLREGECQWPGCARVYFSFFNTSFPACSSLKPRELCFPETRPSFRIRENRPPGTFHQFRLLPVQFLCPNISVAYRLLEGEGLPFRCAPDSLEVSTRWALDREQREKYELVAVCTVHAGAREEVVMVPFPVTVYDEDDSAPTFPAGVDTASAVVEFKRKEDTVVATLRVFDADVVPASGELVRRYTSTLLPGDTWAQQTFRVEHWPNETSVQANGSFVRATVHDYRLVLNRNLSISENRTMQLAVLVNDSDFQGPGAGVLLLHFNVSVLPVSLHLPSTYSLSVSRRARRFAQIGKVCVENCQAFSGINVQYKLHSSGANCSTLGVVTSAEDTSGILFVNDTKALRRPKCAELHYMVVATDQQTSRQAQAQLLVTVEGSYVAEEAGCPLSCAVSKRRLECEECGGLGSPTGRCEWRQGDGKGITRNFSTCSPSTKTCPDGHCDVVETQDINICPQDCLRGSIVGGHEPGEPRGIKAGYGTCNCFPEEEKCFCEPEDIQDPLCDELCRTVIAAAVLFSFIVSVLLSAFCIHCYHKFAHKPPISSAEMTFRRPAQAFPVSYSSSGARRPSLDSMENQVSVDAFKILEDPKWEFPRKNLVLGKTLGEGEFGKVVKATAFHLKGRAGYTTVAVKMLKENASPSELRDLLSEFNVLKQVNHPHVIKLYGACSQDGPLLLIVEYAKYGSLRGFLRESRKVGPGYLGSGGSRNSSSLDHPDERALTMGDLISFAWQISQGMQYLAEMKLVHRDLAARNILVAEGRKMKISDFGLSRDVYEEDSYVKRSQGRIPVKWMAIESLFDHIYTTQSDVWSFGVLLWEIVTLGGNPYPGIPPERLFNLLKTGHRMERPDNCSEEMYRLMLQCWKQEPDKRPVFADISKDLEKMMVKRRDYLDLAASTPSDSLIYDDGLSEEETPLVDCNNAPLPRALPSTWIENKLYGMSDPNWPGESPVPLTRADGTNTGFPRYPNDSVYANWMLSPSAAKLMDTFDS

[14] = molecular target: Serine/threonine-protein kinase SIK1 (Homo sapiens) (UniProt P57059)
[15] = molecular target: T2, Mitogen-activated protein kinase kinase kinase 7 (Homo sapiens) (UniProt O43318)
T2 sequence (whole entry): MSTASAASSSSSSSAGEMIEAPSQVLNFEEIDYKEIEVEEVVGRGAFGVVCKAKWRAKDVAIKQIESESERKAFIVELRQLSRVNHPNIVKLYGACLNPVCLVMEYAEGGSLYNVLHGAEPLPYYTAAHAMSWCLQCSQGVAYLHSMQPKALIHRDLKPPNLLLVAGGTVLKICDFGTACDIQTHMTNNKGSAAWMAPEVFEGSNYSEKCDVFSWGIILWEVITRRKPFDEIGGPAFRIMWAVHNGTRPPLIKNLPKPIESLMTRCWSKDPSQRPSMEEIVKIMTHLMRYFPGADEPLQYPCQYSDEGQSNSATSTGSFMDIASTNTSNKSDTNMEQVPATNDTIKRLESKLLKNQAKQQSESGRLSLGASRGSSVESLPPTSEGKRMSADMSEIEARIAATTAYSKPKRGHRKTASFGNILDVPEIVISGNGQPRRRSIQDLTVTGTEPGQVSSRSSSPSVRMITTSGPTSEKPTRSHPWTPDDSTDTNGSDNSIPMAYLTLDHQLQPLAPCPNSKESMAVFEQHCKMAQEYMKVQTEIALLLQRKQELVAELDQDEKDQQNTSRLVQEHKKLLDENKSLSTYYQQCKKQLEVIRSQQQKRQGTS

[16] = molecular target: T3, Tyrosine-protein kinase ZAP-70 (Homo sapiens) (UniProt P43403)
T3 sequence (whole entry): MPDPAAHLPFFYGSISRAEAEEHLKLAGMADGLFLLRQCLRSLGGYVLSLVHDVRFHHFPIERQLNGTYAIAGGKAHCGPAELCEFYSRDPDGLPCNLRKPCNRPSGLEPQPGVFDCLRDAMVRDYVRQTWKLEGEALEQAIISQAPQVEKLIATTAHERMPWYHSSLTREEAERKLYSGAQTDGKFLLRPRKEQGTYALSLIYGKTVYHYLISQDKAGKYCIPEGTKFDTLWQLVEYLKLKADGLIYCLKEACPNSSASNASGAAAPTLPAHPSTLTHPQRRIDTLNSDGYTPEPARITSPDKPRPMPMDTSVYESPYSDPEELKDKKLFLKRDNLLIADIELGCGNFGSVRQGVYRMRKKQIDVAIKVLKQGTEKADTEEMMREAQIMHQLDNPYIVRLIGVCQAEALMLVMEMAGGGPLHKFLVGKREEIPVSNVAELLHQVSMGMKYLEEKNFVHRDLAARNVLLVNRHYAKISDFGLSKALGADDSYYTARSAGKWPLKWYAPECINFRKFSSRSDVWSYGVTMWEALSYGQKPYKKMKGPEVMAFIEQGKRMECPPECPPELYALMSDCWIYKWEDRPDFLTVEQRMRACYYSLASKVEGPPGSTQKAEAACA

[17] = molecular target: Phosphatidylinositol 4,5-bisphosphate 3-kinase catalytic subunit gamma isoform (Homo sapiens) (UniProt P48736)
[18] = molecular target: Phosphatidylinositol 5-phosphate 4-kinase type-2 alpha (Homo sapiens) (UniProt P48426)
Phosphatidylinositol 5-phosphate 4-kinase type-2 alpha (Homo sapiens), sequence (P48426 whole entry): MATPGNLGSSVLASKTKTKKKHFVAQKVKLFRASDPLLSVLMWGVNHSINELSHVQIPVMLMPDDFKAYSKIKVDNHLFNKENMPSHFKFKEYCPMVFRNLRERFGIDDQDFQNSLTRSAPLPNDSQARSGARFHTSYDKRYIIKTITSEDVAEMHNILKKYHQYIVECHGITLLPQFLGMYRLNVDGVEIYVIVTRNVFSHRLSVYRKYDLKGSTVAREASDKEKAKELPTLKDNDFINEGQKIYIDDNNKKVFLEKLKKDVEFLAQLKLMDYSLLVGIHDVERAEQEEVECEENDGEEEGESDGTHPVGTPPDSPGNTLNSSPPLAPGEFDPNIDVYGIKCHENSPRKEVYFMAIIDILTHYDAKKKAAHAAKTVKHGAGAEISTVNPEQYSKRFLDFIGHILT

Measured: % residual kinase activity

Calcium/calmodulin-dependent protein kinase kinase 1 (Homo sapiens), sequence (Q8N5S9 whole entry, looked up): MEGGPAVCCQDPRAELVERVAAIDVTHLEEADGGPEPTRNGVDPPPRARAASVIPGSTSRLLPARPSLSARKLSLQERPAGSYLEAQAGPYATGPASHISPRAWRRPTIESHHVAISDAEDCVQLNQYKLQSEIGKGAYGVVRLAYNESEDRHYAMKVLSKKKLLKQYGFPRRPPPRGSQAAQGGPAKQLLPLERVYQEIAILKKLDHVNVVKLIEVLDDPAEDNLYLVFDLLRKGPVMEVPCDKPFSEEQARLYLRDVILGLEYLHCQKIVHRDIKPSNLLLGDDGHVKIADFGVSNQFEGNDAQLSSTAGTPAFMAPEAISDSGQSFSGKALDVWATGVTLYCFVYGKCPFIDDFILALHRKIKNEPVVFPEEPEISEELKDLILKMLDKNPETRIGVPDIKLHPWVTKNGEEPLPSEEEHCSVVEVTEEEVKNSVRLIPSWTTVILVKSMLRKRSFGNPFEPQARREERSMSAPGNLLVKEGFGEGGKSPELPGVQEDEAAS
Casein kinase II subunit alpha' (Homo sapiens), sequence (P19784 whole entry, looked up): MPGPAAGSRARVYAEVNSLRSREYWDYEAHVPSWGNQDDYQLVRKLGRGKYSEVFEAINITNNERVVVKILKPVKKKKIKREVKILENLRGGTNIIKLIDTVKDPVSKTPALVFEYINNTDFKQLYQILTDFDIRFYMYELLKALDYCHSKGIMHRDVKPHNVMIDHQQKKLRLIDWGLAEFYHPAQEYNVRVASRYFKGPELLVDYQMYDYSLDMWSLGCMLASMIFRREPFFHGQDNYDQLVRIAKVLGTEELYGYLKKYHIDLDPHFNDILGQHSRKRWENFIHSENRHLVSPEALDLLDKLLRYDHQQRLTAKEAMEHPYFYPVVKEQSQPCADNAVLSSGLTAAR

CN1CCN(c2cnc3c(C4CCN(C(=O)c5ccc(OC(F)(F)F)cc5N)CC4)ncnc3c2)CC1 [BAY-885]
inactive: [1] 95% | [2] 102% | [3] 94% | [4] 107% | [5] 113% | [6] 129% | [7] 93% | [8] 94% | [9] 99% | [10] 99% | [11] 114% | [12] 107% | [13] 122% | [14] 99% | [15] 107% | [16] 108% | [17] 100% | [18] 95%
